Source: ChEMBL document CHEMBL3507680, “University of Dundee, Gates Library screen for HepG2 cell viability”

Test: Human HepG2 cell viability assay in 384 well format
Format: toxicity, cell-based
Design: dose 125 nL, time 70.5 hour; concentration not given beside the values
Conditions: HepG2 cells, read-out: Inhibition

Compound	cytotoxicity at 70.5 h [%]
CC(=O)N1CCCN(C(=O)NCCc2ccc(Cl)s2)CC1	-1.97
CCc1noc(C(C)N2CCC(C(=O)Nc3cnn(CC)c3)CC2)n1 (configuration not stated)	41.4
O=C(Cc1ccccn1)N1CCN(C(=O)c2cccc3[nH]ncc23)CC1	1.92
O=C(NS(=O)(=O)c1ccc2c(c1)OCCO2)c1ccc(Br)cc1F	5.66
Cc1ccc(N2CCCC(NCC(=O)Nc3cc(C)no3)C2)nn1 (configuration not stated)	25.6
CCCc1nc(CN2CCOC(Cn3cncn3)C2)no1 (configuration not stated)	18.1
CCc1n[nH]c(C2CN(C(=O)Cn3ccccc3=O)CCO2)n1 (configuration not stated)	21.1
CCN(CCNC(=O)c1ccccc1OCCOC)C1CC1	54.8
O=C(c1cccc(CNCC2CNc3ccnn3C2)c1)N1CCCC1 (configuration not stated)	16.7
CCOc1cc(/C=C/c2ncc(C(=O)O)s2)ccc1O	0.103
Cc1cnn(CCC(=O)N2CCCN(c3ncccc3C#N)CC2)c1	0.758
CCCNC(=O)Cn1cc(-c2ccccc2)cn1	1.15
CNC(=O)NC(=O)Cn1cc(-c2ccccc2)cn1	-2.21
Cc1nc(C)n(CC2CCCCN2CCC(=O)Nc2cc(C)on2)n1 (configuration not stated)	-3.96
Cc1ccccc1Cc1cnc(NC(=O)C2CNC(=O)N2)s1 (configuration not stated)	2.49
Cc1ccc(Cc2cnc(NC(=O)C3CNC(=O)N3)s2)cc1F (configuration not stated)	-0.116
Cc1cc(NC(=O)CCN2CCCC2Cn2cncn2)no1 (configuration not stated)	1.41
CC(C)Oc1ccccc1CNC(=O)N1CCC(n2cncn2)CC1	26.9
Cc1cnn(CCC(=O)N2CCN(c3ncccc3Cl)CC2)c1	-0.781
CC(C)c1nc(C(=O)N2CCCC(n3cncn3)C2)c[nH]1 (configuration not stated)	-2.47
c1ccc(-c2nc(CN3CCCC(Cn4cncn4)C3)no2)cc1 (configuration not stated)	2.09
CN1CCCc2cc(CNC(=O)c3ccc(NC4CC4)nc3)ccc21	-3.79
Cc1nc(C)n(CC2CCCN(CCc3ccccn3)C2)n1 (configuration not stated)	28.4
COc1ccc(OCCCN2CCOC(Cn3cccn3)C2)cc1 (configuration not stated)	15.4

Compound	cytotoxicity at 70.5 h [%]
Cc1ccc(NC2CCN(C(=O)CN(C)C3CC3)CC2)nn1	-1.46
Cn1cc(C(=O)CC2CCCN2C(=O)c2n[nH]c3ccccc23)cn1 (configuration not stated)	8.22
CCN(CCNC(=O)c1ccccc1Br)C1CC1	-3.52
CCNC(c1cccnc1)c1cc(C)cc(C)c1 (configuration not stated)	2.24
Cc1nn(C)c(Cl)c1C1CCCN1CCc1ccccn1 (configuration not stated)	1.44
CCNC(c1cccnc1)c1ccc(F)c(F)c1 (configuration not stated)	-2.78
Fc1ccc(OCCCN2CCOC(Cn3cncn3)C2)cc1 (configuration not stated)	-5.61
Cc1cnn(CCC(=O)N2CCCN(c3cccnn3)CC2)c1	-2.44
Cc1cnc(CN(C)C2CCN(CCn3cc(C#N)cn3)C2)o1 (configuration not stated)	7.37
CCC1CN(CCNC(C)=O)CCN1CCOC (configuration not stated)	2.28
CC(=O)N1CCN(C(=O)c2cnn(-c3ccccc3Cl)c2)CC1	3.15
CCOc1cccc2c1OCC(C(=O)NS(=O)(=O)c1ccc(Cl)cc1)=C2	21.1
CCCN(Cc1ccccc1)Cn1nc(C)c2c(C)onc2c1=O	0.0673
CCN(Cc1cccc(Cl)c1)Cn1nc(C)c2c(C)onc2c1=O	25.1
c1ccc2sc(CN3CCOC(Cn4cccn4)C3)nc2c1 (configuration not stated)	24.8
Cc1cnn(C2CCCN(C(=O)c3cnc4ccccc4n3)C2)c1 (configuration not stated)	-7.22
Cc1cnn(CC2CCCN2C(=O)c2cn(-c3ccccc3)nc2C)c1 (configuration not stated)	6.33
Cc1cc(C)cc(N(C)S(=O)(=O)c2cc(C(=O)O)cs2)c1	-6.25
N#Cc1cc(NS(=O)(=O)c2ccc(C(=O)O)cc2F)ccc1F	-1.12
Cc1nc(CN2CCOC(CNc3cccnn3)C2)oc1C (configuration not stated)	30.3
O=C(Cc1noc2ccccc12)N1CCCC1c1noc(C2CC2)n1 (configuration not stated)	32.1
CC(C)(C)SCCCC(=O)N1CCC(Nc2cccnn2)CC1	-6.39
C1CC(NCc2nc(C3CC3)no2)CN(Cc2noc(C3CC3)n2)C1 (configuration not stated)	21.5
